# Laboratory results from ChEMBL document CHEMBL1201862, “PubChem BioAssay data set” (2004).
# Structures can show the parent of a compound that is named as a salt. The source made the active and inactive calls.
# Legend:
# [1] = biological target: T1, Aryl hydrocarbon receptor (Homo sapiens, UniProt P35869); test: Luminescence-based cell-based high throughput dose response assay for activators of the Aryl Hydrocarbon Receptor (AHR). [Related pubchem assays: 2796 (Primary screen (AHR activators in singlicate)), 2845 (Confirmation screen (AHR activators in triplicate)), 434939 (Counterscreen (PXR activators in triplicate)), 2804 (Summary (AHR activators))]; format: ADME
# T1 sequence (P35869 whole entry): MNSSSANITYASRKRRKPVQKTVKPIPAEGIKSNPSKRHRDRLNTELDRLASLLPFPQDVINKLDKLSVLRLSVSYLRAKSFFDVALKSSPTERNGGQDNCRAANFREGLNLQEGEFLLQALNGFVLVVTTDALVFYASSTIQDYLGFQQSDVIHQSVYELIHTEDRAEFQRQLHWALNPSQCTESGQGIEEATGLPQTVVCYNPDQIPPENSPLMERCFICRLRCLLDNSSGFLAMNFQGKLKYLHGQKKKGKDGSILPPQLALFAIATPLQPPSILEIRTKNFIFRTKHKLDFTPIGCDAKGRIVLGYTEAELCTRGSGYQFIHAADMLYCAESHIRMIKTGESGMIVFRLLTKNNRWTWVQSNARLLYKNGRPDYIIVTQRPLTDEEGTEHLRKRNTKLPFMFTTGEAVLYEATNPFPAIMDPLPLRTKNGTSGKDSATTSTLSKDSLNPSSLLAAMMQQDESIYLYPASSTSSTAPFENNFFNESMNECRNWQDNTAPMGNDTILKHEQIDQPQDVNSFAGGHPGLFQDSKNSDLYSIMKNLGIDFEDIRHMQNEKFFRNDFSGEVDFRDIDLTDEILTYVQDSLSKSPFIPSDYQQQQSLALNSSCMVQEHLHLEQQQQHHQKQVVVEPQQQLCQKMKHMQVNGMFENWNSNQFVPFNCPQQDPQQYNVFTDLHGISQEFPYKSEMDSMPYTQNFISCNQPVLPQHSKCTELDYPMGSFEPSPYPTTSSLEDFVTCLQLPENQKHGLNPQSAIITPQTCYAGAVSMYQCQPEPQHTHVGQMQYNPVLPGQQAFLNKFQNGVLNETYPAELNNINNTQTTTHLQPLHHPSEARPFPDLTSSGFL
# cells [2] = format: functional, cell-based
# cells [3] = format: functional, cell-based; remark: listed apart in the source
# [4] = biological target: G-protein coupled receptor 35 (Homo sapiens, UniProt Q9HC97); test: GPR35 antagonists blocking zaprinast-driven arrestin recruitment, primary screen, imaging, U2OS, beta-arrestin-GFP, zaprinast agonist (AID 2058); format: functional;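 also: antagonist potency meaning inhibition of agonist-induced arrestin redistribution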
# [5] = biological target: FAD-linked sulfhydryl oxidase ALR (Homo sapiens, UniProt P55789); test: inhibitors of human ALR sulfhydryl oxidase, dose response, biochemical, H2O2 detection, luminescence, cherry-pick (AID 493248)
# [6] = HEp-2 cell cytotoxicity, dose response, cytotoxicity control for RSV inhibitor project, HTS (AID 2410); format: functional; settings: human respiratory syncytial virus
# [7] = HeLa cell cytotoxicity, dose response, cytotoxicity control for MgcRacGAP inhibitor project (AID 624300); format: functional
# [8] = biological target: T2, Rac GTPase-activating protein 1 (Homo sapiens, UniProt Q9H0H5); test: MgcRacGAP GTPase-activating activity inhibitors, confirmation, biochemical, ADP Hunter fluorescence, primary and confirmatory (AID 624330); format: functional
# T2 sequence (Q9H0H5 whole entry): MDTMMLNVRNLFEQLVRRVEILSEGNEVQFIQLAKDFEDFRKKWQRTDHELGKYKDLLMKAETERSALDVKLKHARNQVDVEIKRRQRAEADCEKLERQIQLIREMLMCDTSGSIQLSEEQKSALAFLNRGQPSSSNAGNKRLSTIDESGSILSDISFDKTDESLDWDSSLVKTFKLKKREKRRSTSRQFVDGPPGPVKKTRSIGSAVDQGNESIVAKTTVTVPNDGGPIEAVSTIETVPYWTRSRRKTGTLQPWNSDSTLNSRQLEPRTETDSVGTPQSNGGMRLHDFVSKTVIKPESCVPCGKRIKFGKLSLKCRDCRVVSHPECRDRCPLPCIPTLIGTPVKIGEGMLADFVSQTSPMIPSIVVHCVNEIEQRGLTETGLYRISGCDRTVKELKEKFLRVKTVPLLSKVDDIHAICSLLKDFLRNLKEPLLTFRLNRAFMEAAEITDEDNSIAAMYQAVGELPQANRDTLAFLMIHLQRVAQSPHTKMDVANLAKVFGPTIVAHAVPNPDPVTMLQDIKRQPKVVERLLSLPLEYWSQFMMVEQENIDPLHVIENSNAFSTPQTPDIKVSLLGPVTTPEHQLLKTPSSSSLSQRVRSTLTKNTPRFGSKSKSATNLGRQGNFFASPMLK
# Estrogen receptor = biological target: T3, Estrogen receptor (Homo sapiens, UniProt P03372);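 also: potency for inhibiting coactivator peptide recruitment to the receptor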
# T3 sequence (P03372 whole entry): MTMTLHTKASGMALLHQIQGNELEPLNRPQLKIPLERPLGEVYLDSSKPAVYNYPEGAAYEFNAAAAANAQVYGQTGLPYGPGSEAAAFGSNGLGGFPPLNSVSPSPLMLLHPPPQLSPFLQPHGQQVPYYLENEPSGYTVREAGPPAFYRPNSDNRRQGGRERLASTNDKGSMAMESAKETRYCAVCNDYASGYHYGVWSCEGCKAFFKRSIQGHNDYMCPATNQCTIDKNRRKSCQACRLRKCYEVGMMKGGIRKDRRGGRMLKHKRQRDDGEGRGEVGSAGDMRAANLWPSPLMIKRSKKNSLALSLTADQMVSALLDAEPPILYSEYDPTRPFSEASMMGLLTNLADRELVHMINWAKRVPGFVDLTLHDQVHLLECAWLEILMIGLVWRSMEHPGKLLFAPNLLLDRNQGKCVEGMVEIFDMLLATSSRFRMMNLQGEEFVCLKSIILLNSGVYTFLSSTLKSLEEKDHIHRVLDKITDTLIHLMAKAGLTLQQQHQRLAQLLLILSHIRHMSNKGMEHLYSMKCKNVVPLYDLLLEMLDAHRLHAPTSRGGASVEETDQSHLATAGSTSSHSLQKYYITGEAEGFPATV
# [9] = Luminescence Cell-Based Dose Confirmation HTS to Identify Activators of 5'UTR Stem-Loop Driven Alpha-Synuclein mRNA Translation in H4 Neuroglioblastoma Cells. [Related pubchem assays: 1829 (Project Summary), 1814 (Primary HTS)]; format: functional
# [10] = Luminescence Cell-Based Dose Response HTS to Identify Activators of Luciferase Translation or Activity in H4 […] Cells. [Related pubchem assays: 1829 (Project Summary), 1814 (Primary HTS)]; format: functional
# H4 = test: Luminescence Cell-Based Dose Response HTS to Identify Activators of 5'UTR Stem-Loop Driven Prion Protein mRNA Translation in H4 Neuroglioblastoma Cells. [Related pubchem assays: 1829 (Project Summary), 1814 (Primary HTS)]; format: functional; settings: Homo sapiens
# [11] = biological target: T4, Short transient receptor potential channel 4 (Mus musculus, UniProt Q9QUQ5); test: mouse TRPC4 channel activators, dose response, cell-based, HEK293 TRPC4/mu-opioid, Fluo-4 calcium (AID 434937); format: functional
# T4 sequence (Q9QUQ5 whole entry): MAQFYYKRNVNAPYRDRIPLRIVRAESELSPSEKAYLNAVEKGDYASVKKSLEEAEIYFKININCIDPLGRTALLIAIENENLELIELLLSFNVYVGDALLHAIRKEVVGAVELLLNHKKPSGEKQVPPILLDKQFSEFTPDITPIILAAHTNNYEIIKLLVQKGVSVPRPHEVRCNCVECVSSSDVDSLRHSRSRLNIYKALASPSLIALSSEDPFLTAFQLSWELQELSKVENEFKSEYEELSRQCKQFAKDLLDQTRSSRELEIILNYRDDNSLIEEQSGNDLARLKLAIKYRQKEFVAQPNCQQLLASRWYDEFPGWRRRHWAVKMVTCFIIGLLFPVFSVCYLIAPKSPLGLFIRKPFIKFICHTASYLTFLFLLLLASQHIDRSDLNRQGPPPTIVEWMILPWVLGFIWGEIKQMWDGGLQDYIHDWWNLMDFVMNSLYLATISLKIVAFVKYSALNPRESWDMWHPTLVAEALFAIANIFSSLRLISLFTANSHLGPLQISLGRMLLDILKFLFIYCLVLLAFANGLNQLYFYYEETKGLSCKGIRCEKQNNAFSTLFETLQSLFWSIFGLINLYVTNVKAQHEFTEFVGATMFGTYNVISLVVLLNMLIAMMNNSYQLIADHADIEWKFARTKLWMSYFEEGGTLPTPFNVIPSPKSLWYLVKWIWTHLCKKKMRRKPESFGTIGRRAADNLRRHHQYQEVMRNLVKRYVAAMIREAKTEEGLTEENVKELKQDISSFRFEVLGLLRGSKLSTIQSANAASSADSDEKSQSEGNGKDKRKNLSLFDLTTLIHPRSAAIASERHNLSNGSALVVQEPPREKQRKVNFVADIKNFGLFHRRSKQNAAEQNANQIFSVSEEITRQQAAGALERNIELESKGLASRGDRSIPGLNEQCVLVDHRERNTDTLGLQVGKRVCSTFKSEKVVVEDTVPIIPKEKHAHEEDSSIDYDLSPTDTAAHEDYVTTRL
# [12] = HepG2 cell cytotoxicity, dose response, cytotoxicity control, cherry-picked samples (AID 1159577); format: functional, cell-based
# [13] = P. falciparum Dd2 growth inhibitors, dose response, SYBR Green, cherry-picked samples (AID 1159567); format: functional, cell-based
# [14] = P. falciparum Dd2 growth inhibitors, dose response, SYBR Green, dry powder samples (AID 1159566); format: functional, cell-based;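 also: potency for growth inhibition with lower SYBR green DNA signal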
# [15] = P. falciparum ATP4 D1247Y mutant growth inhibitors, dose response, NITD609-resistant line, SYBR Green, dry powder (AID 1159571); format: functional, cell-based;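 also: parasites synchronized at ring stage by sorbitol before testing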
# [16] = P. falciparum 3D7-ScDHODH growth inhibitors, dose response, SYBR Green, dry powder samples (AID 1159570); format: functional, cell-based;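 also: parasite growth measured after 72 hours of compound exposure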
# [17] = HepG2 cell cytotoxicity, dose response, cytotoxicity control, plate reader, dry powder samples (AID 1159569); format: functional, cell-based;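 also: inhibitor potency with signal falling toward the positive control level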
# [18] = THP-1 cell cytotoxicity, dose response, cytotoxicity control for Vif-APOBEC3G degradation inhibitor project, THP-1 cells (AID 1117359); format: functional; settings: Human immunodeficiency virus 1, THP-1
# [19] = biological target: DNA dC->dU-editing enzyme APOBEC-3A (Homo sapiens, UniProt P31941); test: Dose Response confirmation of small molecule APOBEC3A DNA Deaminase Inhibitors via a fluorescence-based single-stranded DNA deaminase assay. [Related pubchem assays (depositor defined):AID493011, AID493024]; format: functional
# [20] = biological target: DNA dC->dU-editing enzyme APOBEC-3G (Homo sapiens, UniProt Q9HC16); format: functional;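 also: Dose-response counterscreen measuring inhibition of APOBEC3G DNA deaminase activity, run while confirming APOBEC3A inhibitors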
# NADPH oxidase 1 = biological target: T5, NADPH oxidase 1 (Homo sapiens, UniProt Q9Y5S8); format: functional, cell-based;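 also: Cell-based assay with luminescence read-out, IC50 derived from inhibitor dose-response curves; intracellular ROS from endogenous NOX1 in intact HT29 colon cancer cells; potency of inhibitors that lower the ROS luminescence signal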
# T5 sequence (Q9Y5S8 whole entry): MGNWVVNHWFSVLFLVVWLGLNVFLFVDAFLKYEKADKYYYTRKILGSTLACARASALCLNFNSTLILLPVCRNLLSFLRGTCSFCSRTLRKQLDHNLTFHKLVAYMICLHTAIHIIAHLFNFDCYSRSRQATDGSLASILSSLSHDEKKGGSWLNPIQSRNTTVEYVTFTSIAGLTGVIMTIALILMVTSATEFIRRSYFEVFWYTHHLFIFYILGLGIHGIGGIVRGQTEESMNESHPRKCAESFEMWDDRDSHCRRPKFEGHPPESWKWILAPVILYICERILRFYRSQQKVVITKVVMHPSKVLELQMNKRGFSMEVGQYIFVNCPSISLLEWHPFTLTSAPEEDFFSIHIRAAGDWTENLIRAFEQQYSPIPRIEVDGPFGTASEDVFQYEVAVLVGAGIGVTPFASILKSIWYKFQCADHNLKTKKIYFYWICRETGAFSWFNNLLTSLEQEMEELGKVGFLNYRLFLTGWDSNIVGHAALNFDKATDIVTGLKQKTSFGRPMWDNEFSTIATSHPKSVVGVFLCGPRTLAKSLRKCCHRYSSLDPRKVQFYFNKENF
# Chain of FAD-linked sulfhydryl oxidase ALR (P55789 whole entry): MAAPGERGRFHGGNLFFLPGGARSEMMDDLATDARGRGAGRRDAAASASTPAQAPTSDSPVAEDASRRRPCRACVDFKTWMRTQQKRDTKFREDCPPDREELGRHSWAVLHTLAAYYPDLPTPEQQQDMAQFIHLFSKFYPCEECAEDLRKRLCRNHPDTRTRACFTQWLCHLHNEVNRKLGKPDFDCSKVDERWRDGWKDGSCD
# Chain of G-protein coupled receptor 35 (Q9HC97 whole entry): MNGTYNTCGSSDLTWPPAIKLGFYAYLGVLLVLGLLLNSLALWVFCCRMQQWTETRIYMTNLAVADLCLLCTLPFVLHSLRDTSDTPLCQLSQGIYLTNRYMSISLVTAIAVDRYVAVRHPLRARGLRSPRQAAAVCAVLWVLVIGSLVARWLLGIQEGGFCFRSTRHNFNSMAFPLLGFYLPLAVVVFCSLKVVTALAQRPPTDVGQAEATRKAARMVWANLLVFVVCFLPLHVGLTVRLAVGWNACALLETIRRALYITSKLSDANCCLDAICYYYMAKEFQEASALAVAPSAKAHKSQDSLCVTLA
# Chain of DNA dC->dU-editing enzyme APOBEC-3A (P31941 whole entry): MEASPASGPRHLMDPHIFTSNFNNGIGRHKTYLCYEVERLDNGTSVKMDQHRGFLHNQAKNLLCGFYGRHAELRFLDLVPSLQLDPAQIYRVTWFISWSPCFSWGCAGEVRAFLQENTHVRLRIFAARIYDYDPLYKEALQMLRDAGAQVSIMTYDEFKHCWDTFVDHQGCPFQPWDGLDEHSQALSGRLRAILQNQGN
# Chain of DNA dC->dU-editing enzyme APOBEC-3G (Q9HC16 whole entry): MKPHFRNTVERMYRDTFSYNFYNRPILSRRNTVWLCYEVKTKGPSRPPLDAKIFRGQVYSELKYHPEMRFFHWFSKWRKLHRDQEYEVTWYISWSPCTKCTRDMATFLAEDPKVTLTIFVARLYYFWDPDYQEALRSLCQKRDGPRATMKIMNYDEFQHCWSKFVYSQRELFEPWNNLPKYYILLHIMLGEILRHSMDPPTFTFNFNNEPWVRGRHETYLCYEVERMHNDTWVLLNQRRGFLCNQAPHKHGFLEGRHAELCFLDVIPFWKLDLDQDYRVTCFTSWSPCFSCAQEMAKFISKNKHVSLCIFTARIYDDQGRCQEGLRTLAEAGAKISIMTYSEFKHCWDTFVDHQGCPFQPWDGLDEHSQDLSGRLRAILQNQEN
structure (smiles),measurement,setting,value
COc1cc2ccccc2cc1C(=O)Nc1ccc(C)cc1,EC50,[1],0.394 µM (active)
same,EC50,cells [2],29.2 µM (active)
same,EC50,cells [3],> 350 µM (not active)
O=C(Nc1nc2ccccc2s1)c1ccc(N2CCCCC2)c([N+](=O)[O-])c1,IC50,[4],1.12 µM (active)
COc1ccc(/C=N/Nc2nc3ccccc3[nH]2)cc1OC,AC50,[5],0.285 µM (active)
same,CC50,[6],20.8 µM (active)
same,EC50,[1],3.46 µM (active)
same,CC50,[7],100 µM (active)
same,IC50,[8],74 µM (active)
O=S(=O)(/N=C(\Sc1ccc(Cl)cc1)c1ccccc1)c1ccccc1,IC50,Estrogen receptor,> 50 µM (not active)
CN(C)c1ccc(-c2sc(Nc3ccccc3)n[n+]2-c2ccc(F)cc2)cc1,EC50,[9],> 120 µM (not active)
same,EC50,[10],17.8 µM (active)
same,EC50,H4,> 120 µM (not active)
same,IC50,[4],1.33 µM (active)
same,EC50,[11],10.6 µM (active)
CN(C)CC(=O)N[C@@H]1C[C@@H]2O[C@@H](CO)CC[C@@H]2O[C@@H]1CCc1ccc(C2=CCCCC2)cc1,AC50,[12],27.7 µM (active)
same,AC50,[13],6.13 µM (active)
C[C@@H]1CN([C@H](C)CO)C(=O)c2cc(C#Cc3ccccc3)cnc2O[C@H]1CN(C)C(=O)CCN1CCCCC1,AC50,[12],35.6 µM (active)
same,AC50,[14],1.49 µM (active)
same,AC50,[15],1.79 µM (active)
same,AC50,[16],2.34 µM (active)
same,AC50,[13],2.23 µM (active)
same,AC50,[17],22.9 µM (active)
NC(=O)c1ccccc1NC(=O)/C=C/c1ccc(Cl)cc1,CC50,[18],> 40 µM (active)
O=C(NCCC1CCCCN1S(=O)(=O)c1ccc(F)cc1)C(=O)NCc1ccccn1 (configuration not stated),CC50,[18],> 40 µM (active)
C#CCn1cc(/C=N/NC(=O)COc2cccc3cccnc23)c2ccccc21,IC50,[19],> 100 µM (inactive)
same,IC50,[20],> 100 µM (inactive)
same,EC50,[1],> 0.377 µM (active)
Fc1ccc2c(c1)Sc1ccccc1N2,IC50,NADPH oxidase 1,0.24 µM (active)
COc1ccc(C2CC(c3c(O)nc4ccc(Cl)cc4c3-c3ccccc3)=NN2S(C)(=O)=O)cc1OC (configuration not stated),IC50,Estrogen receptor,12.4 µM (active)
CN(C)CCCN1c2ccccc2Sc2ccccc21 [PROMAZINE HYDROCHLORIDE],AC50,[5],1.28 µM (active)
same,IC50,NADPH oxidase 1,> 17 µM (not active)
